This passage reports inhibition and Ki results from US6906095B2, “Indolylalkylidenehydrazine-carboximidamide derivatives as 5-hydroxytryptamine-6 ligands” (Wyeth, priority 2002, dated 2005).

The target in this test is T1, human cloned 5-HT6 receptors (Homo sapiens, UniProt P50406).
T1 construct: expressed in transfected cells; host or cells: Hela cells
The test can be described thus: 5-HT6 binding affinity, [3H]-LSD displacement in membranes of Hela cells. The conditions noted are these: for inhibition at 1 µM: test compound dose 1000 nM, read-out: % Inhibition; for inhibition at 0.1 µM: test compound dose 100 nM. Here is the method: The affinity of test compounds for the serotonin 5-HT6 receptor is evaluated in the following manner. Cultured Hela cells expressing human cloned 5-HT6 receptors are harvested and centrifuged at low speed (1,000×g) for 10.0 min to remove the culture media. The harvested cells are suspended in half volume of fresh physiological phosphate buffered saline solution and recentrifuged at the same speed. This operation is repeated. The collected cells are then homogenized in ten volumes of 50 mM Tris.HCl (pH 7.4) and 0.5 mM EDTA. The homogenate is centrifuged at 40,000×g for 30.0 min and the precipitate is collected. The obtained pellet is resuspended in 10 volumes of Tris.HCl buffer and recentrifuged at the same speed. The final pellet is suspended in a small volume of Tris.HCl buffer and the tissue protein content is determined in aliquots of 10-25 μl volumes. Bovine Serum Albumin is used as the standard in the protein determination according to the method described in Lowry et al., J. Biol. Chem., 193:265 (1951). The volume of the suspended cell membranes is adjusted to give a tissue protein concentration of 1.0 mg/ml of suspension. The prepared membrane suspension (10 times concentrated) is aliquoted in 1.0 ml volumes and stored at −70° C. until used in subsequent binding experiments.
The reaction is allowed to proceed in the dark for 120 min at room temperature, at which time, the bound ligand-receptor complex is filtered off on a 96 well unifilter with a Packard Filtermate® 196 Harvester. The bound complex caught on the filter disk is allowed to air dry and the radioactivity is measured in a Packard TopCount® equipped with six photomultiplier detectors, after the addition of 40.0 μl Microscint®-20 scintillant to each shallow well. The unifilter plate is heat-sealed and counted in a PackardTopCount® with a tritium efficiency of 31.0%.
Specific binding to the 5-HT6 receptor is defined as the total radioactivity bound less the amount bound in the presence of 10.0 μM unlabeled methiothepin. Binding in the presence of varying concentrations of test compound is expressed as a percentage of specific binding in the absence of test compound. The results are plotted as logit % bound versus log concentration of test compound. Nonlinear regression analysis of data points with a computer assisted program Prism® yields both the IC50 and the Ki values of test compounds with 95% confidence limits.
The amount of displacement by the test compound is given in percent (%) inhibition and is derived from the following equation: [formula] where B0 is the amount of CPM bound in the presence of the testing agent. NSB represents the CPM bound in the presence of a saturating concentration of a displacer and TB represents the total amount of CPM bound at zero (0) concentration of test compound.
Alternatively, a linear regression line of decline of data points is plotted, from which the IC50 value can be read off and the Ki value determined by solving the following equation: [formula] where L is the concentration of the radioactive ligand used and KD is the dissociation constant of the ligand for the receptor, both expressed in nM.

T1 sequence (P50406 whole entry): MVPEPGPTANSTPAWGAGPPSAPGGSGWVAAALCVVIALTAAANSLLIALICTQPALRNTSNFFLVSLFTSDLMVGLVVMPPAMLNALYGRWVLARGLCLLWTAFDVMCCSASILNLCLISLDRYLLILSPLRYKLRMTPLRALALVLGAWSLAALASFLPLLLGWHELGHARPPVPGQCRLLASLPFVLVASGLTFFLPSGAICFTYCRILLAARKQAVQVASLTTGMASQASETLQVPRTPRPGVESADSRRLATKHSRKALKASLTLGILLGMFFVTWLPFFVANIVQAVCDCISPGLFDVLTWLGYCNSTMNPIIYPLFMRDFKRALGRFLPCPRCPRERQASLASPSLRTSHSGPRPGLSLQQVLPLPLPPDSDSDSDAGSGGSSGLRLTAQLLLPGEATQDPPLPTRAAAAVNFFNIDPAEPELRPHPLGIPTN

What is called inhibition is the percentage by which the read-out fell short of the control. `CCCCC(=NNC(=N)N)c1cn(S(=O)(=O)c2ccc3ccccc3c2)c2cc(F)ccc12` [Example 110, 2-{1-[6-fluoro-1-(2-naphthylsulfonyl)-1H-indol-3-yl]pentylidene}hydrazinecarboximidamide]: the inhibition at 1 µM ([3H]-LSD 3.0 nM) came out at 60.2%.
Same read-out and setting: the value for `N=C(N)NN=C(c1c(-c2ccc(Cl)cc2)n(S(=O)(=O)c2ccc3ccccc3c2)c2ccccc12)C1CC1` [Example 94, 2-[[2-(4-chlorophenyl)-1-(2-naphthylsulfonyl)-1H-indol-3-yl](cyclopropyl)methylidene]hydrazinecarboximidamide] was 27.9%.
One may read the Ki as the equilibrium dissociation constant of an inhibitor or competing ligand from its target. Compound `CCC(=NNC(=N)N)c1cn(S(=O)(=O)c2ccc3ccccc3c2)c2ccc(Cl)cc12` [Example 122, 2-{1-[5-chloro-1-(2-naphthylsulfonyl)-1H-indol-3-yl]propylidene}hydrazinecarboximidamide] displayed a Ki of 101 nM.
Turning to `COc1ccc(S(=O)(=O)n2cc(C(=NNC(=N)N)C3CC3)c3ccccc32)cc1OC` [Example 71, 2-(cyclopropyl{1-[(3,4-dimethoxyphenyl)sulfonyl]-1H-indol-3-yl}methylidene)hydrazinecarboximidamide], for the setting “[3H]-LSD 3.0 nM”, the inhibition at 0.1 µM came to 61.5%.
Turning to `CC(=NNC(=N)N)c1cn(S(=O)(=O)c2c(Cl)sc(Cl)c2Br)c2ccccc12` [Example 27, 2-(1-{1-[(4-bromo-2,5-dichlorothien-3-yl)sulfonyl]-1H-indol-3-yl}ethylidene)hydrazinecarboximidamide], 0.1 µM produced 33.8% inhibition ([3H]-LSD 3.0 nM).
With `COc1ccc(S(=O)(=O)n2cc(C(C)=NNC(=N)N)c3ccc(F)cc32)cc1OC` [Example 115, 2-(1-{1-[(3,4-dimethoxyphenyl)sulfonyl]-6-fluoro-1H-indol-3-yl}ethylidene)hydrazinecarboximidamide], the inhibition at 1 µM ([3H]-LSD 3.0 nM) was 89.2%.
Regarding `CC(=NNC(=N)N)c1cn(S(=O)(=O)c2ccc(OC(F)(F)F)cc2)c2ccccc12` [Example 54, 2-[1-(1-{[4-(trifluoromethoxy)phenyl]sulfonyl}-1H-indol-3-yl)ethylidene]hydrazinecarboximidamide], the inhibition at 0.1 µM ([3H]-LSD 3.0 nM) is 26.2%.
As to `CCCCC(=NNC(=N)N)c1cn(S(=O)(=O)CCCC)c2cc(F)ccc12` [Example 104, 2-{1-[1-(butylsulfonyl)-6-fluoro-1H-indol-3-yl]pentylidene}hydrazinecarboximidamide], the inhibition at 1 µM ([3H]-LSD 3.0 nM) was 81.3%.
`CC(=NNC(=N)N)c1cn(S(=O)(=O)c2cccc(Br)c2)c2ccccc12` [Example 32, 2-(1-{1-[(3-bromophenyl)sulfonyl]-1H-indol-3-yl}ethylidene)hydrazinecarboximidamide] yielded an inhibition constant Ki of 26 nM. The same compound returned an inhibition at 0.1 µM ([3H]-LSD 3.0 nM) of 76.2%.
Regarding `CCCCC(=NNC(=N)N)c1c(-c2ccc(Cl)cc2)n(S(=O)(=O)c2ccccc2)c2ccccc12` [Example 96, 2-{1-[2-(4-chlorophenyl)-1-(phenylsulfonyl)-1H-indol-3-yl]pentylidene}hydrazinecarboximidamide], the inhibition at 1 µM ([3H]-LSD 3.0 nM) stood at 20%.
The compound `CC(=NNC(=N)N)c1cn(S(=O)(=O)c2sc3ccc(Cl)cc3c2C)c2ccccc12` [Example 35, 2-(1-{1-[(5-chloro-3-methyl-1-benzothien-2-yl)sulfonyl]-1H-indol-3-yl}ethylidene)hydrazinecarboximidamide] registered an inhibition at 0.1 µM ([3H]-LSD 3.0 nM) of 39.1%.
For `COc1ccc(S(=O)(=O)n2cc(C(C)=NNC(=N)N)c3cc(Cl)ccc32)cc1` [Example 78, 2-(1-{5-chloro-1-[(4-methoxyphenyl)sulfonyl]-1H-indol-3-yl}ethylidene)hydrazinecarboximidamide], the inhibition at 1 µM ([3H]-LSD 3.0 nM) worked out at 85.5%.
As to `CCCCC(=NNC(=N)N)c1cn(S(=O)(=O)c2ccc(OC)cc2)c2ccccc12` [Example 62, 2-(1-{1-[(4-methoxyphenyl)sulfonyl]-1H-indol-3-yl}pentylidene)hydrazinecarboximidamide], the inhibition at 1 µM ([3H]-LSD 3.0 nM) came to 68.3%.
Consider `CC(=NNC(=N)N)c1cn(S(=O)(=O)c2ccccc2)c2ccc([N+](=O)[O-])cc12` [Example 18, 2-{1-[5-nitro-1-(phenylsulfonyl)-1H-indol-3-yl]ethylidene}hydrazinecarboximidamide], for which testing at 0.1 µM ([3H]-LSD 3.0 nM) gave an inhibition of 77.9%.
Still for that read-out and setting: the value for `CC(=NNC(=N)N)c1cn(C(=O)Nc2ccccc2)c2ccccc12` [Example 129, 3-(1-{2-[amino(imino)methyl]hydrazono}ethyl)-N-phenyl-1H-indole-1-carboxamide] was 23.4%; that for `CCCCC(=NNC(=N)N)c1cn(S(=O)(=O)c2ccccc2)c2ccc(Cl)cc12` [Example 85, 2-{1-[5-chloro-1-(phenylsulfonyl)-1H-indol-3-yl]pentylidene}hydrazinecarboximidamide] was 57.5%.
Consider `CS(=O)(=O)n1cc(C(=NNC(=N)N)C2CC2)c2ccc(F)cc21` [Example 102, 2-{cyclopropyl[6-fluoro-1-(methylsulfonyl)-1H-indol-3-yl]methylidene}hydrazinecarboximidamide], for which testing at 0.01 µM (test compound dose 10 nM, [3H]-LSD 3.0 nM) gave an inhibition of 41.1%.
Regarding `CCCCC(=NNC(=N)N)c1cn(S(=O)(=O)c2ccc(OC)cc2)c2cc(F)ccc12` [Example 107, 2-(1-{6-fluoro-1-[(4-methoxyphenyl)sulfonyl]-1H-indol-3-yl}pentylidene)hydrazinecarboximidamide], the inhibition at 1 µM ([3H]-LSD 3.0 nM) stood at 61.5%.
On to `CC(=NNC(=N)NCc1ccccc1)c1cn(S(=O)(=O)c2ccccc2)c2ccccc12` [Example 125, N-benzyl-2-{1-[1-(phenylsulfonyl)-1H-indol-3-yl]ethylidene}hydrazinecarboximidamide], for which testing at 0.1 µM ([3H]-LSD 3.0 nM) gave an inhibition of 39.1%.
As to `CC(=NNC(=N)N)c1cn(S(=O)(=O)c2ccc(F)cc2)c2ccccc12` [Example 44, 2-(1-{1-[(4-fluorophenyl)sulfonyl]-1H-indol-3-yl}ethylidene)hydrazinecarboximidamide], the affinity, expressed as Ki, was 33 nM. The same compound displayed an inhibition at 0.1 µM ([3H]-LSD 3.0 nM) of 75.5%.
The compound `CCCCS(=O)(=O)n1cc(C(=NNC(=N)N)C2CC2)c2ccc(F)cc21` [Example 105, 2-[[1-(butylsulfonyl)-6-fluoro-1H-indol-3-yl](cyclopropyl)methylidene]hydrazinecarboximidamide] displayed an inhibition at 0.1 µM ([3H]-LSD 3.0 nM) of 58.4%.
With `Cc1ccc(S(=O)(=O)n2cc(C=NNC3=NCCCN3)c3ccccc32)cc1` [Example 1, 1-[(4-methylphenyl)sulfonyl]-1H-indole-3-carboxaldehyde 1,4,5,6-tetrahydropyrimidin-2-ylhydrazone], where the note is “[3H]-LSD 3.0 nM”, the inhibition at 1 µM came out at 56%.
Still for that read-out and setting: the same measure for `CC(=NNC(=N)N)c1cn(S(=O)(=O)c2ccccc2)c2cc(F)ccc12` [Example 112, 2-{1-[6-fluoro-1-(phenylsulfonyl)-1H-indol-3-yl]ethylidene}hydrazinecarboximidamide]: 94.6%; for `CCCCC(=NNC(=N)N)c1cn(S(C)(=O)=O)c2ccccc12` [Example 56, 2-{1-[1-(methylsulfonyl)-1H-indol-3-yl]pentylidene}hydrazinecarboximidamide]: 76.9%.
As for `N=C(N)NN=C(Cc1ccccc1)c1cn(S(=O)(=O)c2ccccc2)c2ccccc12` [Example 6, 2-{2-phenyl-1-[1-(phenylsulfonyl)-1H-indol-3-yl]ethylidene}hydrazinecarboximidamide], affinity was put at a Ki of 11 nM. In addition, the inhibition at 1 µM ([3H]-LSD 3.0 nM) is 97.8%.
`CC(=NNC(=N)N)c1c(-c2ccc(F)c(F)c2)n(S(=O)(=O)c2ccccc2)c2ccccc12` [Example 13, 2-{1-[2-(3,4-difluorophenyl)-1-(phenylsulfonyl)-1H-indol-3-yl]ethylidene}hydrazinecarboximidamide]: the inhibition at 1 µM ([3H]-LSD 3.0 nM) was found to be 86%.
As to `CC(=NNC(=N)N)c1cn(S(=O)(=O)c2ccc(Br)s2)c2ccccc12` [Example 33, 2-(1-{1-[(5-bromothien-2-yl)sulfonyl]-1H-indol-3-yl}ethylidene)hydrazinecarboximidamide], the Ki stood at 19 nM. The inhibition at 0.1 µM ([3H]-LSD 3.0 nM) worked out at 76.4%.
`CS(=O)(=O)n1cc(C(=NNC(=N)N)C2CC2)c2ccccc21` [Example 57, 2-{cyclopropyl[1-(methylsulfonyl)-1H-indol-3-yl]methylidene}hydrazinecarboximidamide] displayed an inhibition at 0.1 µM ([3H]-LSD 3.0 nM) of 40.4%.
